Laboratory results reported in patent US10807976B2, “Quinolinone five-membered heterocyclic compounds as mutant-isocitrate dehydrogenase inhibitors” (FORMA Therapeutics, Inc., priority 2015, dated 2020).

Target: IDH1-R132H recombinant protein (Homo sapiens, UniProt O75874, R132H)
Assay: IDH1-R132H enzymatic assay (diaphorase/resazurin, NADPH consumption)
Format: biochemical
Conditions: 30 nM IDH1-R132H, inhibition of NADPH consumption; read-out: Enzyme IDH1 R132H IC50
Description: Example 26—IDH1-R132H and IDH1-R132C Enzymatic Assay
Assays were performed in a 384-well black plate. An aliquot of 250 nL of compound was incubated with 10 μL of 30 nM IDH1-R132H or 10 nM IDH1-R132C recombinant protein in assay buffer (50 mM Tris pH=7.5, 150 mM NaCl, 5 mM MgCl2, 0.1% (w/v) Bovine Serum Albumin, and 0.01% Triton X-100) in each well at 25° C. for 15 minutes. After the plate was centrifuged briefly, an aliquot of 10 μL of 2 mM α-ketoglutarate and 20 μM NADPH solution prepared in assay buffer was then added to each well and the reaction was maintained at 25° C. for 45 minutes. An aliquot of 10 μL of diaphorase solution (0.15 U/mL diaphorase and 30 μM Resazurin in assay buffer) was added to each well. The plate was maintained at 25° C. for 15 minutes and then read on a plate reader with excitation and emission wavelengths at 535 nm and 590 nm, respectively. The IC50 of a given compound was calculated by fitting the dose response curve of inhibition of NADPH consumption at a given concentration with the four parameter logistic equation.

Chain of IDH1-R132H recombinant protein (O75874 whole entry R132H): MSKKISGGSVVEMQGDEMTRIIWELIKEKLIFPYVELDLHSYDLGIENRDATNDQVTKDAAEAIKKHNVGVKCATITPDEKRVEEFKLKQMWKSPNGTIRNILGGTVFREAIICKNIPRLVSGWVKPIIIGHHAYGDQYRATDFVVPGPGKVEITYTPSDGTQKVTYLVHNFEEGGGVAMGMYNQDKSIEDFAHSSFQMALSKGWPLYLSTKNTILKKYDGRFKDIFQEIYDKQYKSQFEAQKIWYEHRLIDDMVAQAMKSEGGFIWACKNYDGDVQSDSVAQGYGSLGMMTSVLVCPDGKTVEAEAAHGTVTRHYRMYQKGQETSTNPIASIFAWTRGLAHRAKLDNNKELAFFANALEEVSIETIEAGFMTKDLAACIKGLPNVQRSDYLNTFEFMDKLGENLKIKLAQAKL

In the case of “6-chloro-3-[(1S)-1-{[5-(2-oxo-1,3-oxazolidin-3-yl)-1,2,4-thiadiazol-3-yl]amino}ethyl]-1,2-dihydroquinolin-2-one [Compound I-12]”, the IC50 is reported as over 10 µM.
